This note sets out measurements from patent publication US20120065152A1 (SHIRE LLC, priority 2010, published 2012).

Several values for one entry are separate records, joined by “and”; a condition that tells them apart may be missing. Equal values may be shown once. Where a name gives a salt, the structure may show the parent alone. Some results are limits rather than exact numbers.

Series [1] can be described thus: Stability studies on guanfacine prodrugs in buffers. The class given is physicochemical.
The mark [2] stands for this setting: DMSO, organic solvent or mixture, Solubility, in DMSO.
[3] abbreviates: pH 1.2, 37° C., 0.1M HCl/NaCl buffer, 1 h.
Setting [4] is: pH 1.2, 37° C., 0.1M HCl/NaCl buffer, time 0.
The mark [5] stands for this setting: pH 3.0, 20° C., 0.1M citrate buffer, 2 h.
Where [6] appears, read: pH 3.0, 20° C., 0.1M citrate buffer, time 0.
The mark [7] stands for this setting: pH 6.8, 37° C., 0.1M phosphate buffer, 2 h.
The mark [8] stands for this setting: pH 6.8, 37° C., 0.1M phosphate buffer, time 0.
The mark [9] stands for this setting: pH 7.4, 37° C., 0.1M phosphate buffer, 2 h.
The mark [10] stands for this setting: pH 7.4, 37° C., 0.1M phosphate buffer, time 0.
Setting [11] is: DMSO, organic solvent or mixture.
[12] abbreviates: water/CH3CN (1:1), aqueous with cosolvent or surfactant or cyclodextrin, Solubility, in water/CH3CN (1:1).
The mark [13] stands for this setting: pH 1.2, 37° C., 0.1M HCl/NaCl buffer, time 0, Hydrochloride.
The mark [14] stands for this setting: pH 6.8, 37° C., 0.1M phosphate buffer, 2 h, Hydrochloride.
Setting [15] is: pH 7.4, 37° C., 0.1M phosphate buffer, 2 h, Hydrochloride.

In the case of `CO[C@H]1O[C@H](COC(=O)NC(=N)NC(=O)Cc2c(Cl)cccc2Cl)[C@@H](O)[C@H](O)[C@H]1O.Cl` [Compound 16, 2-(2,6-dichlorophenyl)-N-(N-((((2R,3S,4S,5R,6S)-3,4,5-trihydroxy-6-methoxytetrahydro-2H-pyran-2-yl)methoxy)carbonyl)carbamimidoyl)acetamide hydrochloride], the “Solubility (in words)” value in the series “Solubility” is “water, DMSO”.

Consider `CC(C)[C@@H]1CC[C@@H](C)C[C@H]1OC(=O)NC(N)=NC(=O)Cc1c(Cl)cccc1Cl.Cl` [Compound 29, 1-(R)-{N′-[2-(2,6-Dichloro-phenyl)-acetyl]-guanidinocarbonyloxy}-2-(S)-isopropyl-5-(R)-methyl-cyclohexane Hydrochloride], for which the solubility in “Solubility” (2.5 mL CH3CN/1 mL H2O, aqueous with cosolvent or surfactant or cyclodextrin, Solubility, in 2.5 mL CH3CN/1 mL H2O) is above 1430 µg/mL; in the series “Solubility” (setting [2]), above 10000 µg/mL; in the series “Solubility” (water, Solubility, in water) it was below 1000 µg/mL. Also, the Active drug in series [1] (setting [3]), in series [1] (setting [4]), in series [1] (setting [5]), in series [1] (setting [6]), in series [1] (setting [7]) and in series [1] (setting [8]) was 0.0 each time. In addition, the Active drug in series [1] (setting [9]) and in series [1] (setting [10]) was 0.0 each time. The Pro-drug in series [1] (pH 1.2, 37° C., 0.1M HCl/NaCl buffer, 1 h, listed as Guanfacine-(−)-Menthyl Carbamate Hydrochloride, Hydrochloride) is 94.6 and 95.5; in series [1] (setting [4]) it was 100; in series [1] (pH 3.0, 20° C., 0.1M citrate buffer, 2 h, listed as Guanfacine-(−)-Menthyl Carbamate Hydrochloride, Hydrochloride), 98.3 and 99.6; in series [1] (setting [6]) it was 100; in series [1] (pH 6.8, 37° C., 0.1M phosphate buffer, 2 h, listed as Guanfacine-(−)-Menthyl Carbamate Hydrochloride, Hydrochloride), 97.9 and 97.3; in series [1] (setting [8]), 100. In addition, the Pro-drug in series [1] (pH 7.4, 37° C., 0.1M phosphate buffer, 2 h, listed as Guanfacine-(−)-Menthyl Carbamate Hydrochloride, Hydrochloride) was 94.7 and 96.9; in series [1] (setting [10]), 100.

In the case of `N=C(NC(=O)Cc1c(Cl)cccc1Cl)NC(=O)Oc1ccc(CC(=O)O)cc1` [Compound 25, Hydrochloride], the solubility is above 23000 µg/mL in “Solubility” (setting [11]) and below 2300 µg/mL in the series “Solubility” (water).

Regarding `Cl.NC(=NC(=O)Cc1c(Cl)cccc1Cl)NC(=O)OCC1CC1` [Compound 31, {N′-[2-(2,6-Dichloro-phenyl)acetyl]-guanidino-carbonyloxy}methylcyclopropane Hydrochloride], the solubility was above 10000 µg/mL in “Solubility” (setting [2]); below 1000 µg/mL in the series “Solubility” (water, Solubility, in water); above 5000 µg/mL in “Solubility” (setting [12]). Also, the Active drug in series [1] (setting [3]) was found to be 0.6; in series [1] (setting [4]) it was 0.0; in series [1] (setting [5]), 0.0; in series [1] (setting [6]), 0.0; in series [1] (setting [7]), 0.0; in series [1] (setting [8]), 0.0. Besides, the Active drug in series [1] (setting [9]) and in series [1] (setting [10]) was 0.0 each time. Besides, the Pro-drug in series [1] (pH 1.2, 37° C., 0.1M HCl/NaCl buffer, 1 h, listed as Guanfacine Cyclopropylmethyl Carbamate Hydrochloride, Hydrochloride) is 92.9 and 92.7; in series [1] (setting [4]) it was 100; in series [1] (pH 3.0, 20° C., 0.1M citrate buffer, 2 h, listed as Guanfacine Cyclopropylmethyl Carbamate Hydrochloride, Hydrochloride), 98.3 and 98.5; in series [1] (setting [6]), 100; in series [1] (pH 6.8, 37° C., 0.1M phosphate buffer, 2 h, listed as Guanfacine Cyclopropylmethyl Carbamate Hydrochloride, Hydrochloride), 97.6 and 97.4; in series [1] (setting [8]) it was 100. Further, the Pro-drug in series [1] (pH 7.4, 37° C., 0.1M phosphate buffer, 2 h, listed as Guanfacine Cyclopropylmethyl Carbamate Hydrochloride, Hydrochloride) is 99.6 and 99.5; in series [1] (setting [10]), 100.

As for `CC(C)(C)OC(=O)NC(=N)NC(=O)Cc1c(Cl)cccc1Cl.Cl` [Guanfacine Tert-Butyl Carbamate Hydrochloride], the solubility was above 5 mg in “Solubility” (in 2 mL CH3CN/1 mL H2O), above 10000 µg/mL in “Solubility” (in DMSO) and below 1000 µg/mL in “Solubility” (in water). For the same compound, the Pro-drug in series [1] (setting [3]) is 0.0; in series [1] (setting [13]) it was 91.2 and 90.5; in series [1] (setting [5]) it was 34.5; in series [1] (setting [6]), 100; in series [1] (setting [14]), 83.6 and 84.9; in series [1] (setting [8]), 100. Also, the Pro-drug in series [1] (setting [15]) is 84.2 and 82.7; in series [1] (setting [10]), 100. The Active drug in series [1] (pH 1.2, 37° C., 0.1M HCl/NaCl buffer, 1 h, Hydrochloride) was 99.7 and 100; in series [1] (setting [13]) it was 8.8 and 9.5; in series [1] (pH 3.0, 20° C., 0.1M citrate buffer, 2 h, Hydrochloride), 66.6 and 65.5; in series [1] (setting [6]), 0.0; in series [1] (setting [14]) it was 14.2 and 15.2; in series [1] (setting [8]), 0.0. The Active drug in series [1] (setting [15]) is 11.0 and 11.2; in series [1] (setting [10]) it was 0.0.

In the case of `CC(C)COC(=O)NC(N)=NC(=O)Cc1c(Cl)cccc1Cl.Cl` [Compound 8, 1-{N′-[2-(2,6-Dichloro-phenyl)-acetyl]-guanidinocarbonyloxy}-2-methylpropane Hydrochloride], the solubility is above 10000 µg/mL in “Solubility” (setting [2]); below 1000 µg/mL in “Solubility” (water, Solubility, in water); above 1000 µg/mL in “Solubility” (setting [12]). Besides, the Active drug in series [1] (setting [3]), in series [1] (setting [4]), in series [1] (setting [5]), in series [1] (setting [6]), in series [1] (setting [7]) and in series [1] (setting [8]) was 0.0 throughout. The Active drug in series [1] (setting [9]) and in series [1] (setting [10]) was 0.0 throughout. For the same compound, the Pro-drug is 95.1 and 95.0 in series [1] (pH 1.2, 37° C., 0.1M HCl/NaCl buffer, 1 h, listed as Guanfacine Isobutyl Carbamate Hydrochloride, Hydrochloride); 100 in series [1] (setting [4]); 95.2 and 95.3 in series [1] (pH 3.0, 20° C., 0.1M citrate buffer, 2 h, listed as Guanfacine Isobutyl Carbamate Hydrochloride, Hydrochloride); 100 in series [1] (setting [6]); 98.2 and 97.9 in series [1] (pH 6.8, 37° C., 0.1M phosphate buffer, 2 h, listed as Guanfacine Isobutyl Carbamate Hydrochloride, Hydrochloride); 100 in series [1] (setting [8]). Also, the Pro-drug was 95.3 and 96.7 in series [1] (pH 7.4, 37° C., 0.1M phosphate buffer, 2 h, listed as Guanfacine Isobutyl Carbamate Hydrochloride, Hydrochloride); 100 in series [1] (setting [10]).

`Cl.N=C(NC(=O)Cc1c(Cl)cccc1Cl)NC(=O)Oc1cccc(C(=O)O)c1` [Compound 28, 3-[({[2-(2,6-dichlorophenyl)acetamido]methanimidoyl}carbamoyl)oxy]benzoic acid hydrochloride]: the “Solubility (in words)” value in “Solubility” is recorded as “insoluble in water”. Also, in the series “Solubility” (setting [11]), the solubility was above 20000 µg/mL.

For `[2H]C([2H])([2H])C([2H])([2H])OC(=O)NC(=N)NC(=O)Cc1c(Cl)cccc1Cl` [Compound 13, {N′-[2-(2,6-Dichloro-phenyl)-acetyl]-guanidinocarbonyloxy} d5-ethane], the solubility in “Solubility” (setting [2]) was above 10000 µg/mL; in “Solubility” (water, Solubility, in water), below 1000 µg/mL. Moreover, the Active drug in series [1] (setting [3]), in series [1] (setting [4]), in series [1] (setting [5]), in series [1] (setting [6]), in series [1] (setting [7]) and in series [1] (setting [8]) was 0.0 each time. Further, the Active drug in series [1] (setting [9]) and in series [1] (setting [10]) was 0.0 each time. Also, the Pro-drug in series [1] (pH 1.2, 37° C., 0.1M HCl/NaCl buffer, 1 h, listed as Guanfacine D5-Ethyl Carbamate) is 97.6 and 96.6; in series [1] (setting [4]), 100; in series [1] (pH 3.0, 20° C., 0.1M citrate buffer, 2 h, listed as Guanfacine D5-Ethyl Carbamate) it was 98.7 and 98.3; in series [1] (setting [6]) it was 100; in series [1] (pH 6.8, 37° C., 0.1M phosphate buffer, 2 h, listed as Guanfacine D5-Ethyl Carbamate), 99.4 and 99.2; in series [1] (setting [8]) it was 100. Also, the Pro-drug in series [1] (pH 7.4, 37° C., 0.1M phosphate buffer, 2 h, listed as Guanfacine D5-Ethyl Carbamate) was 99.4 and 99.2; in series [1] (setting [10]), 100.

As for `NC(=NC(=O)Cc1c(Cl)cccc1Cl)NC(=O)OCc1ccccc1` [Compound 10, {N′-[2-(2,6-Dichloro-phenyl)-acetyl]guanidino-carbonyloxy}toluene Hydrochloride], the solubility was above 5000 µg/mL in the series “Solubility” (CH3CN, organic solvent or mixture, Solubility, in CH3CN); above 10000 µg/mL in the series “Solubility” (setting [2]); below 1000 µg/mL in “Solubility” (water, Solubility, in water).
